Article PMC3961306, “Comparison of the Cancer Gene Targeting and Biochemical Selectivities of All Targeted Kinase Inhibitors Approved for Clinical Use” (PLoS ONE, 2014)

Experiments:
Assay in all cases: Kinase profiling in a biochemical assay panel (mobility shift assays and ELISA), %-inhibition at 1 μM; selectivity entropy
[1] = molecular target: panel of more than 300 wild-type and mutant kinases (313 kinase panel) (Homo sapiens, UniProt Q13131); details: kinase AMPKα1/β1/γ1; 1 μM compound
[2] = molecular target: T1, panel of more than 300 wild-type and mutant kinases (313 kinase panel) (Homo sapiens, UniProt P42681); details: kinase TXK; compound at 1 μM
T1 sequence (P42681 1-527): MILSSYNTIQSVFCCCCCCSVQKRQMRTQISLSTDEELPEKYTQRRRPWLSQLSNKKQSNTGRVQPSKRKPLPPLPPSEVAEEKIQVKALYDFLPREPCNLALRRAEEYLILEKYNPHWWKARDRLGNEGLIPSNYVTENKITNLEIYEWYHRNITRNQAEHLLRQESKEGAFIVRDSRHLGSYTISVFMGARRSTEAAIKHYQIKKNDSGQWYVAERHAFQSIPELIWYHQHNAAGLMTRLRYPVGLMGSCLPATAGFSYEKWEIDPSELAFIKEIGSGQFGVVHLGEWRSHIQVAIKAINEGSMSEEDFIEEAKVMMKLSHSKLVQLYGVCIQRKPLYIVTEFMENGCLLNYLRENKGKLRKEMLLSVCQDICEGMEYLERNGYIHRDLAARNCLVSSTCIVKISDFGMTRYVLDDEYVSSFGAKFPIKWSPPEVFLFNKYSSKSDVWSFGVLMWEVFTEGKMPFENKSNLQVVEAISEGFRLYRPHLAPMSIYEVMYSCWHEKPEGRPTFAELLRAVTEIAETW

[3] = molecular target: panel of more than 300 wild-type and mutant kinases (313 kinase panel) (Homo sapiens, UniProt P06213); details: kinase INSR; compound at 1 μM
[4] = molecular target: panel of more than 300 wild-type and mutant kinases (313 kinase panel) (Homo sapiens, UniProt P49761)
[5] = molecular target: T2, panel of more than 300 wild-type and mutant kinases (313 kinase panel) (Homo sapiens, UniProt Q9NWZ3)
T2 sequence (Q9NWZ3 1-460): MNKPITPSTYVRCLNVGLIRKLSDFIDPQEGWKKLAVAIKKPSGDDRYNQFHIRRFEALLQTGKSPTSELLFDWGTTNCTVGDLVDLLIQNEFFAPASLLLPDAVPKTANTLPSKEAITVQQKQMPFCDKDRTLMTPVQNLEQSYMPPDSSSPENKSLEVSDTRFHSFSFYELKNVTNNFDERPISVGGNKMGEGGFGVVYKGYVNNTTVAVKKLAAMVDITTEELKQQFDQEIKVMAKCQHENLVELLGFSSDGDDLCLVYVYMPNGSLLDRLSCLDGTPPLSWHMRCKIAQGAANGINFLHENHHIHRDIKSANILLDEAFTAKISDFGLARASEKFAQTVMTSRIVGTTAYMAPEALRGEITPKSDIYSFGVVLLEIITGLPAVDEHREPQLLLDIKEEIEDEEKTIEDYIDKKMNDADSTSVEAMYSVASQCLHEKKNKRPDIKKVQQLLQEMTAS

[6] = molecular target: panel of more than 300 wild-type and mutant kinases (313 kinase panel) (Homo sapiens, UniProt P43405)
[7] = molecular target: panel of more than 300 wild-type and mutant kinases (313 kinase panel) (Homo sapiens, UniProt Q16539); details: kinase p38α; 1 μM
[8] = molecular target: panel of more than 300 wild-type and mutant kinases (313 kinase panel) (Homo sapiens, UniProt Q9H4A3); details: kinase WNK1; compound at 1 μM
[9] = molecular target: panel of more than 300 wild-type and mutant kinases (313 kinase panel) (Homo sapiens, UniProt P08631); details: kinase HCK; compound at 1 μM
[10] = molecular target: panel of more than 300 wild-type and mutant kinases (313 kinase panel) (Homo sapiens, UniProt Q86V86); details: kinase PIM3; 1 μM
[11] = molecular target: panel of more than 300 wild-type and mutant kinases (313 kinase panel) (Homo sapiens, UniProt P22455, V550E); details: kinase FGFR4(V550E); compound at 1 μM
Sequence of panel of more than 300 wild-type and mutant kinases (313 kinase panel) (Homo sapiens, UniProt P22455, V550E) (P22455 22-802 V550E): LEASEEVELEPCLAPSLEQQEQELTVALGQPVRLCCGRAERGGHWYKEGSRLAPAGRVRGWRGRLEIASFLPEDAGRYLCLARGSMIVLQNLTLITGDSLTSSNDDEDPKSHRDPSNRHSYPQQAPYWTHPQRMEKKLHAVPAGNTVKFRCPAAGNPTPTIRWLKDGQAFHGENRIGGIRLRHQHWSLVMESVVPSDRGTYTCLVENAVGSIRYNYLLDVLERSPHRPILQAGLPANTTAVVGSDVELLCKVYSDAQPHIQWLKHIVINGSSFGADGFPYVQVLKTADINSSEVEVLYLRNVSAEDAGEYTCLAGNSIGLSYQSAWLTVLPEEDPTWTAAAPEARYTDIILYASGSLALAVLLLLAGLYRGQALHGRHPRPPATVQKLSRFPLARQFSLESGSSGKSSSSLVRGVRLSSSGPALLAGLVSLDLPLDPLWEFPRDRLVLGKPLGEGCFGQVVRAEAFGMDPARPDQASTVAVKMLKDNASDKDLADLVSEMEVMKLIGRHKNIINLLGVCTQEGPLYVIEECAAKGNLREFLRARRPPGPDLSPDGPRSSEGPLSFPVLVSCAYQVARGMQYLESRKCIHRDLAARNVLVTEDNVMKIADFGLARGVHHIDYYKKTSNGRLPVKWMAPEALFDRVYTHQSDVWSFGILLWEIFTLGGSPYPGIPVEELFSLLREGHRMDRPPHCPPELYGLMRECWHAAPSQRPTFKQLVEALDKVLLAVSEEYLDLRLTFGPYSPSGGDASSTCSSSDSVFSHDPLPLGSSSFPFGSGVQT

Sequence of panel of more than 300 wild-type and mutant kinases (313 kinase panel) (Homo sapiens, UniProt P49761) (P49761 whole entry, change not shown): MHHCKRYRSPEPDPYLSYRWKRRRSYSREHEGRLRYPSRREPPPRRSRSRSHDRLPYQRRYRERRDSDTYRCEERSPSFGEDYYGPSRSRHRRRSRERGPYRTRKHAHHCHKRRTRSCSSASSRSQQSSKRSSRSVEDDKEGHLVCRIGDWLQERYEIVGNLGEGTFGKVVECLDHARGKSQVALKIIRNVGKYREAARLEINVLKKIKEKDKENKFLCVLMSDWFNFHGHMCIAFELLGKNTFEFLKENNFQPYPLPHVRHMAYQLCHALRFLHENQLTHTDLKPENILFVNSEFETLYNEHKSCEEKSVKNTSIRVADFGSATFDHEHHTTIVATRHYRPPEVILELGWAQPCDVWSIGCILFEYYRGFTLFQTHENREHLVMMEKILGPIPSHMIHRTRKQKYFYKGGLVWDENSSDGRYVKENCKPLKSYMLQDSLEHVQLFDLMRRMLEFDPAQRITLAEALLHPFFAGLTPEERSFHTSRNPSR
Sequence of panel of more than 300 wild-type and mutant kinases (313 kinase panel) (Homo sapiens, UniProt P06213) (P06213 28-1382, stated change not applied): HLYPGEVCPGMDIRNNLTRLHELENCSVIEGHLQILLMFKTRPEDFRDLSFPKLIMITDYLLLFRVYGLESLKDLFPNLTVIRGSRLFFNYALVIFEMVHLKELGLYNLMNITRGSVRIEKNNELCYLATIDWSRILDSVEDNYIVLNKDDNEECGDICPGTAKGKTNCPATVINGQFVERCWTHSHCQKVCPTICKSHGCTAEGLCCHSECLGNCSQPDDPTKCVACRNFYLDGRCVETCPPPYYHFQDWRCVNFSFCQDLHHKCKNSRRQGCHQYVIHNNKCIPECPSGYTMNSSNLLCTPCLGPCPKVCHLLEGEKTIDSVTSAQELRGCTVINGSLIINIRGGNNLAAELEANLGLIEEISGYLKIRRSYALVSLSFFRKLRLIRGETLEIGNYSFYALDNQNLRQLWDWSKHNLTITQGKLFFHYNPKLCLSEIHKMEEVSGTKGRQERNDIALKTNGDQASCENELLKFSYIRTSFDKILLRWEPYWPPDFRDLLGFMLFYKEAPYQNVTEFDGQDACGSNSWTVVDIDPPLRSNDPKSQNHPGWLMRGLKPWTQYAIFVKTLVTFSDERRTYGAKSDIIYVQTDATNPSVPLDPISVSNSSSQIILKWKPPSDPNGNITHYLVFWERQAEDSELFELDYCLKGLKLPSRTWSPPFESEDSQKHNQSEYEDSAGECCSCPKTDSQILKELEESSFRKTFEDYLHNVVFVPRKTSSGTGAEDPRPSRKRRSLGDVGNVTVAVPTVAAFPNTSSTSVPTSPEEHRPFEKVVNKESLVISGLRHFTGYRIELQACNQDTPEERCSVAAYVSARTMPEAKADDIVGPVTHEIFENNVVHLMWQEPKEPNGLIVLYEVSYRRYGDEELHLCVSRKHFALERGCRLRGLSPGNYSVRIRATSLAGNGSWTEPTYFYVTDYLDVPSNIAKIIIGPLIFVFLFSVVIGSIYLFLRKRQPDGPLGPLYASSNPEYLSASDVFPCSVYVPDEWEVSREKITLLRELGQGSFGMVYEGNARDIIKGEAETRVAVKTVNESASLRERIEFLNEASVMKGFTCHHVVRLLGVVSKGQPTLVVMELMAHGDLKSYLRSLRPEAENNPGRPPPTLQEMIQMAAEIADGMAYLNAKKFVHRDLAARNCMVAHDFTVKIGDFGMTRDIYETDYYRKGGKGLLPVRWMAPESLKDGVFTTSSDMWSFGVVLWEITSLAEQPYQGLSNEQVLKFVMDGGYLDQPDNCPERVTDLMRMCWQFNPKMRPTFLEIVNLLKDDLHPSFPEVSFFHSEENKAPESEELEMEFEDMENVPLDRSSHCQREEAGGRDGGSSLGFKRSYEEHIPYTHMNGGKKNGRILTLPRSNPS
Sequence of panel of more than 300 wild-type and mutant kinases (313 kinase panel) (Homo sapiens, UniProt Q13131) (Q13131 whole entry, change not shown): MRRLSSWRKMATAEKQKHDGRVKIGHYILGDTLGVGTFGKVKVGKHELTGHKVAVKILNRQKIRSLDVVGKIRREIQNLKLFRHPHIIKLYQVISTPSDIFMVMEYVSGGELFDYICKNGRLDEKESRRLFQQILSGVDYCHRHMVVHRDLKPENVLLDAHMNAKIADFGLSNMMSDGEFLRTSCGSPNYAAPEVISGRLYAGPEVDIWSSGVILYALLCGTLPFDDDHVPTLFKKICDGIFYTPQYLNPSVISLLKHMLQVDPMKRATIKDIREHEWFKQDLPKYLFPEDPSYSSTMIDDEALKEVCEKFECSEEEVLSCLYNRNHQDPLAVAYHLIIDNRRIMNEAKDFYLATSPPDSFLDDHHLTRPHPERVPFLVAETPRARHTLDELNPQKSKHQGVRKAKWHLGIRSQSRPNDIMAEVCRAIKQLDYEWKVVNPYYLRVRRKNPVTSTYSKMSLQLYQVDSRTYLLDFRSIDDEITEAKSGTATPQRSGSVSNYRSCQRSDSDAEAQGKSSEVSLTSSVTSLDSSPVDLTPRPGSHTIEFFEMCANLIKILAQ
Sequence of panel of more than 300 wild-type and mutant kinases (313 kinase panel) (Homo sapiens, UniProt P08631) (P08631 whole entry, change not shown): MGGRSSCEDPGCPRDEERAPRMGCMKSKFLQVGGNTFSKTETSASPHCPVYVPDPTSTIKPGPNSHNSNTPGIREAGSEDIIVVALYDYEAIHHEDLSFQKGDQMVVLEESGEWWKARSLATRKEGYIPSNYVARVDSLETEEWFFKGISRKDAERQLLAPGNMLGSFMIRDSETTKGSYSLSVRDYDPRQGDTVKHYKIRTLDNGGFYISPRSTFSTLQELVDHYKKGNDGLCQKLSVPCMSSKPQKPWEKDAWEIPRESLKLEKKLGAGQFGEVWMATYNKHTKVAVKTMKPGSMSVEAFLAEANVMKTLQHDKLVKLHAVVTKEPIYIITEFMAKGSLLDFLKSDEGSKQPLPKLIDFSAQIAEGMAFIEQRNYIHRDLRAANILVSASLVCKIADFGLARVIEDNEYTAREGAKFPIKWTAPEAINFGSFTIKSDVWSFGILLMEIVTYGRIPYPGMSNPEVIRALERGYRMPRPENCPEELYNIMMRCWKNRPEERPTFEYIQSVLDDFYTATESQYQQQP
Sequence of panel of more than 300 wild-type and mutant kinases (313 kinase panel) (Homo sapiens, UniProt Q16539) (Q16539 whole entry, change not shown): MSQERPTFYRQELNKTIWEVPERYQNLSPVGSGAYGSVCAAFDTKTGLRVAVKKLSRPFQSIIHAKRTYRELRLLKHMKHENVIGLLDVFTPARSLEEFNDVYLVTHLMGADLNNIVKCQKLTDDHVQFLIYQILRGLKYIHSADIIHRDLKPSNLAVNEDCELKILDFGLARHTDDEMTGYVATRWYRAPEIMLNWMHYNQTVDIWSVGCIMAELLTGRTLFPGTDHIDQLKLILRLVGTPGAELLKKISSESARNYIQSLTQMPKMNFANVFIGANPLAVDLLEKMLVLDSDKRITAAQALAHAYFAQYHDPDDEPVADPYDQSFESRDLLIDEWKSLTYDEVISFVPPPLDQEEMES

SMILES	%-inhibition, AMPKα1/β1/γ1 [1] [%]	%-inhibition of TXK [2] [%]	%-inhibition of INSR [3] [%]	%-inhibition of CLK3 ([4]; kinase CLK3, compound at 1 μM) [%]	%-inhibition of IRAK4 ([5]; kinase IRAK4, compound at 1 μM) [%]	%-inhibition of SYK ([6]; kinase SYK, 1 μM) [%]	%-inhibition of p38α [7] [%]	%-inhibition of WNK1 [8] [%]	%-inhibition of HCK [9] [%]	%-inhibition of PIM3 [10] [%]	%-inhibition of FGFR4(V550E) [11] [%]	%-inhibition of CLK3 ([4]; 1 µM) [%]	%-inhibition of IRAK4 ([5]; 1 µM) [%]	%-inhibition of SYK ([6]; 1 µM) [%]
CO[C@H]1C[C@@H]2CC[C@@H](C)[C@@](O)(O2)C(=O)C(=O)N2CCCC[C@H]2C(=O)O[C@H]([C@H](C)C[C@@H]2CC[C@@H](OCCO)[C@H](OC)C2)CC(=O)[C@H](C)/C=C(\C)[C@@H](O)[C@@H](OC)C(=O)[C@H](C)C[C@H](C)/C=C/C=C/C=C/1C [everolimus]	-6	-4.36	-3.77	-9	-6	-2.55	-4.27	-5	-2.7	-4	-4.41			
O=S(=O)(c1cccc2cnccc12)N1CCCNCC1 [fasudil]	-14	1	-11	-0.753	-4.68	6	-7	3	-2.15	3.45	-2.85			
CNC(=O)c1cc(Oc2ccc(NC(=O)Nc3ccc(Cl)c(C(F)(F)F)c3)c(F)c2)ccn1 [regorafenib]	-0.723	-2.18	-2.79	-15	1.07	3.55	94	-4	59	-6.53	-0.119			
N#CC[C@H](C1CCCC1)n1cc(-c2ncnc3[nH]ccc23)cn1 [ruxolitinib]	2.17	10	0.837				-2.16	-4	9	-9	5	-2.14	-3.69	20
CO[C@H]1C[C@@H]2CC[C@@H](C)[C@@](O)(O2)C(=O)C(=O)N2CCCC[C@H]2C(=O)O[C@H]([C@H](C)C[C@@H]2CC[C@@H](OC(=O)C(C)(CO)CO)[C@H](OC)C2)CC(=O)[C@H](C)/C=C(\C)[C@@H](O)[C@@H](OC)C(=O)[C@H](C)C[C@H](C)/C=C/C=C/C=C/1C [temsirolimus]	-4.34	-7	-4	-3	-5.36	-13	-5	-4.27	3.49	-1.31	-0.119			
CC(=O)Nc1cccc(-n2c(=O)n(C3CC3)c(=O)c3c(Nc4ccc(I)cc4F)n(C)c(=O)c(C)c32)c1 [trametinib]	-12	-4.66	-30	-0.0684	-5	-5	-4	-1.42	-2.84	8.44	-3.28			
CCCS(=O)(=O)Nc1ccc(F)c(C(=O)c2c[nH]c3ncc(-c4ccc(Cl)cc4)cc23)c1F [vemurafenib]	-1.59	5	17	-14	-4.29	-3.77	10	10	30	-5	1.79			
